Assay results: US20220339261A1, “ORAL PHARMACEUTICAL COMPOSITION INCLUDING TERIPARATIDE AND METHOD FOR PREPARING SAME” (ICURE BNP CO., LTD., priority 2019, published 2022)

How the values were obtained:
[1] = Rat bioavailability / pharmacokinetics, plasma teriparatide by ELISA; conditions: for AUCinf / AUClast: mean ± SD (n = 4)
Protocol: After anesthesia by intraperitoneal injection of ketamine (45 mg/kg) and xylazine (5 mg/kg) to female Sprague-Dawley rats (200-250 g, 6-7 weeks old), the abdomen of the rat was cut to take out the small intestine, and Examples 1 and 4 and Comparative Examples 1 and 2 prepared above were dispersed in purified water, and then injected into a proximal jejunum in an amount corresponding to 100 μg/kg as teriparatide by 400 μL. In addition, in order to evaluate the relative bioavailability, 150 μL of teriparatide solution dissolved in physiological saline was subcutaneously injected at an amount corresponding to 20 μg/kg as teriparatide.
After drug administration, blood samples were collected 150 μL at regular time intervals and mixed with 3.8% aqueous sodium citrate solution of 50 μL. Thereafter, the blood sample was centrifuged for 15 minutes at 2,500×g, at 4° C., and plasma was collected and stored at −70° C. The teriparatide concentration in plasma was measured at a wavelength of 620 nm using the human PTH (1-34) ELISA kit (ALPCO Diagnostics, USA). The pharmacokinetic parameters are estimated through the non-compartment method using WinNonlin S Software (ver. 5.3; Pharsight Corporation, USA) and are shown in Table 6 and FIG. 1.

[2] = Apparent permeability through Caco-2 cell monolayer (Transwell); format: in vitro ADME; conditions: Caco-2 monolayer, 200 μM as teriparatide in HBSS, 37° C., up to 5 hours; mean ± SD (n = 4); read-out: Apparent transmittance (Papp)
Protocol: The apparent permeability of the complexes prepared as in Example 1 and Comparative Examples 1 to 7 to the intestinal cell membrane, Caco-2 cell membrane, was evaluated as follows. After Caco-2 cells were treated at a concentration of 1×10^5 cells/mL in 24-well Transwell, respectively, and after culturing the cells for 14 to 16 days, a cell monolayer of the electrical resistance (TEER) value through the Caco-2 cell membrane was >350 Ω·cm^2 was used for the experiment. First, the medium was removed from the Transwell, and then the donor part and receiving part were filled with HBSS and cultured at 37° C. for 20 minutes, then the TEER value was measured again, and then HBSS was removed. […] At 0.5, 1, 2, 3, 4, and 5 hours, 100 μL samples were collected from the receiving part, filtered using a membrane filter (pore 0.45 μm, PVDF), and the concentration of teriparatide permeated through the intestinal cell membrane was analyzed by HPLC under the conditions mentioned in Experimental Example 1. Apparent intestinal cell membrane permeability (Papp) was calculated using Formula 2 below, and the results are shown in Table 3. […]

[3] = Parallel artificial membrane permeability assay (PAMPA), effective permeability of teriparatide; format: in vitro ADME; conditions: PBS pH 6.8, 200 μg/mL as teriparatide, room temperature, 5 hours, mean ± SD (n = 4)
Protocol: Effective permeability (Pe) through the artificial intestinal membrane of Examples 1 and Comparative Examples 1 to 7 prepared above was evaluated using the parallel artificial membrane permeability assay (PAMPA), which is an artificial intestinal membrane permeability evaluation system. First, the samples of Example 1 and Comparative Examples 1 to 7 were dissolved in phosphate buffer (PBS, pH 6.8) to a concentration of 200 μg/mL as teriparatide, and then 200 μL each was added to the donor part of the PAMPA system, and 300 μL of phosphate buffer (PBS, pH 6.8) was filled in the receiving part of the PAMPA system. […] Then, the solution of each well of the receiving part and the donor part was filtered through a membrane filter having a pore diameter of 0.45 μm, and then the concentration of teriparatide permeated through the artificial intestinal membrane was analyzed using the HPLC system under the following conditions.
50 μL of each sample was injected into the HPLC system, and acetonitrile (B) containing 0.1% (w/v) trifluoroacetic acid (TFA) aqueous solution (A) and 0.1% (w/v) TFA as mobile phases were separated by linearly changing the composition of mobile phase B from 51% to 76% for 25 minutes at a flow rate of 1.0 mL/min. Teriparatide was measured at 220 nm, and the effective transmittance (Pe) through the artificial intestinal membrane was calculated by Formula 1 below. […]

[4] = female, Sprague-Dawley, plasma, sc, 0.02 mg/kg
[5] = subcutaneous injection, 0.02 mg/kg as teriparatide
[6] = dosing in jejunum, 0.1 mg/kg as teriparatide

SMILES	Cmax [1, 4]	Tmax [1, 4]	bioavailability [1, 4]	AUCinf [1, 5]	AUClast [1, 5]	Papp [2]	Effective transmittance (Pe) [3]	bioavailability ([1]; 0.1 mg/kg)	AUCinf [1, 6]	AUClast [1, 6]	AUC(0-t) ([1]; in vivo, 0.1 mg/kg)	Cmax ([1]; in vivo, 0.1 mg/kg)	Tmax ([1]; in vivo, 0.1 mg/kg)
CC[C@H](C)[C@H](NC(=O)[C@H](CCC(=O)O)NC(=O)[C@H](CO)NC(=O)[C@@H](NC(=O)[C@@H](N)CO)C(C)C)C(=O)N[C@@H](CCC(N)=O)C(=O)N[C@@H](CC(C)C)C(=O)N[C@@H](CCSC)C(=O)N[C@@H](Cc1cnc[nH]1)C(=O)N[C@@H](CC(N)=O)C(=O)N[C@@H](CC(C)C)C(=O)NCC(=O)N[C@@H](CCCCN)C(=O)N[C@@H](Cc1cnc[nH]1)C(=O)N[C@@H](CC(C)C)C(=O)N[C@@H](CC(N)=O)C(=O)N[C@@H](CO)C(=O)N[C@@H](CCSC)C(=O)N[C@@H](CCC(=O)O)C(=O)N[C@@H](CCCN=C(N)N)C(=O)N[C@H](C(=O)N[C@@H](CCC(=O)O)C(=O)N[C@@H](Cc1c[nH]c2ccccc12)C(=O)N[C@@H](CC(C)C)C(=O)N[C@@H](CCCN=C(N)N)C(=O)N[C@@H](CCCCN)C(=O)N[C@@H](CCCCN)C(=O)N[C@@H](CC(C)C)C(=O)N[C@@H](CCC(N)=O)C(=O)N[C@@H](CC(=O)O)C(=O)N[C@H](C(=O)N[C@@H](Cc1cnc[nH]1)C(=O)N[C@@H](CC(N)=O)C(=O)N[C@@H](Cc1ccccc1)C(=O)O)C(C)C)C(C)C [Teriparatide]	0.805 ± 0.209 ng/mL	15 min	100%	0.765 ± 0.199 ng ·) sh/mL	0.734 ± 0.191 ng ·) sh/mL								
CC[C@H](C)[C@H](NC(=O)[C@H](CCC(=O)O)NC(=O)[C@H](CO)NC(=O)[C@@H](NC(=O)[C@@H](N)CO)C(C)C)C(=O)N[C@@H](CCC(N)=O)C(=O)N[C@@H](CC(C)C)C(=O)N[C@@H](CCSC)C(=O)N[C@@H](Cc1cnc[nH]1)C(=O)N[C@@H](CC(N)=O)C(=O)N[C@@H](CC(C)C)C(=O)NCC(=O)N[C@@H](CCCCN)C(=O)N[C@@H](Cc1cnc[nH]1)C(=O)N[C@@H](CC(C)C)C(=O)N[C@@H](CC(N)=O)C(=O)N[C@@H](CO)C(=O)N[C@@H](CCSC)C(=O)N[C@@H](CCC(=O)O)C(=O)N[C@@H](CCCN=C(N)N)C(=O)N[C@H](C(=O)N[C@@H](CCC(=O)O)C(=O)N[C@@H](Cc1c[nH]c2ccccc12)C(=O)N[C@@H](CC(C)C)C(=O)N[C@@H](CCCN=C(N)N)C(=O)N[C@@H](CCCCN)C(=O)N[C@@H](CCCCN)C(=O)N[C@@H](CC(C)C)C(=O)N[C@@H](CCC(N)=O)C(=O)N[C@@H](CC(=O)O)C(=O)N[C@H](C(=O)N[C@@H](Cc1cnc[nH]1)C(=O)N[C@@H](CC(N)=O)C(=O)N[C@@H](Cc1ccccc1)C(=O)O)C(C)C)C(C)C [compound 1]						0.362 ± 0.045 ×10⁻⁶ cm/s	0.582 ± 0.132 ×10^−6 cm/s	0.81 ± 0.191%	0.031 ± 0.007 ng ·) sh/mL	0.030 ± 0.007 ng ·) sh/mL	0.03 ± 0.007 ng·h/mL	0.041 ± 0.01 ng/mL	19.8 ± 8.4 min
